According to patent publication US20240158393A1, “PYRIDONE COMPOUNDS AND METHODS OF USE” (Exelixis, Inc., priority 2021, published 2024):

Legend:
Format in all cases: biochemical
Human Mer = biological target: T1, Human Mer (Homo sapiens, UniProt Q12866); assay: Human Mer kinase assay (33P radiometric / HTRF KinEase); conditions: protocols of Examples C-1 and/or C-2
T1 construct: Human Mer (residues R557-E882 with H628Q and R794A, 0.7 nM); purchased Eurofins Pharma Discovery Services UK Limited (KinaseProfiler service)
T1 sequence (Q12866 557-882 limits assumed): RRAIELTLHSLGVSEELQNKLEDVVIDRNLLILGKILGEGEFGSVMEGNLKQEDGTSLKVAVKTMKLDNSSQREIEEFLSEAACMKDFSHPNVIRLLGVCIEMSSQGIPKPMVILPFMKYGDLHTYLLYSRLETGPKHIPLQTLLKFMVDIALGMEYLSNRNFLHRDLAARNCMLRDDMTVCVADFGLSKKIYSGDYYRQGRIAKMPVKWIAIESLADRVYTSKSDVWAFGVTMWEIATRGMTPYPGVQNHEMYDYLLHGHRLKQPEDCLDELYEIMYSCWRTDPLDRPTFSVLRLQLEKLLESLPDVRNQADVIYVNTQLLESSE
Procedure: (§1) Kinase activity and compound inhibition were investigated using the ^33P-Phosphoryl transfer radiometric kinase assay, performed using the KinaseProfiler™ service of Eurofins Pharma Discovery Services UK Limited. Dose-response experiments were performed using nine compound concentrations in a 96-well microtiter plate. For each assay, all compounds were prepared to a 50× final assay concentration (50 μM) in 100% DMSO, then diluted in a half-log series, with the final top concentration at 1 μM. This working stock of the compound was added to the assay well as the first component in the reaction, followed by the remaining components as detailed in the following assay protocols below. The positive control wells (100% kinase activity) contain all components of the reaction including 2% DMSO (control for solvent effects), except the compound of interest. Blank wells contain all components of the reaction, with the reference inhibitor, staurosporine. This reference compound was used to abolish kinase activity and generated the 0% kinase activity base-line. IC50 values were calculated by nonlinear regression analysis using the sigmoidal dose-response (variable slope) curve fit on XLFit version 5.3 (ID Business Solutions).
(§2) Kinase activity and compound inhibition were also investigated using the HTRF® KinEase assay (Cisbio Cat #62TKOPEB) per manufacturer's instructions. In short, compounds were delivered in 300 nL volumes at 10 different concentrations in DMSO (3% final) to empty 384-well assay plates (Corning cat #3824). A mixture of enzyme, 1 μM biotinylated peptide substrate, and buffer in 10 μL volume was added. The assay was started upon the addition of ATP (at Km). The 10 μL reaction was incubated at room temperature. The reaction was stopped upon the addition of detection buffer containing streptavidin-XL665 (5 μL) and TK antibody-Eu3+(5 μL). After a 60 min incubation at room temperature, the fluorescence at 665 nm and 620 nm was read on an Envision microplate reader (Perkin Elmer).
(§3) Kinase activity normalized to DMSO (100% activity) and reference compound at 1 μM and (0% activity) was calculated using the fluorescence ratio […]. IC50 values were calculated by nonlinear regression analysis using a 4-parameter logistic curve fit in ActivityBase XE (IDBS).
(§4) Example C-1: Human Mer (residues R557-E882 with H628Q and R794A, 0.7 nM) was incubated with 8 mM MOPS pH 7.0, 0.2 mM EDTA, 30 mM NaCl, 250 μM GGMEDIYFEFMGGKKK (SEQ ID NO: 2), 10 mM magnesium acetate, and 10 μM [γ-^33P-ATP]. The reaction was initiated by the addition of the Mg/ATP mix. After incubation for 40 minutes at room temperature, the reaction was stopped by the addition of phosphoric acid to a concentration of 0.5%. A reaction aliquot of 10 μL was then spotted onto a P30 filtermat and washed four times for 4 minutes in 0.425% phosphoric acid and once in methanol prior to drying and scintillation counting. Incorporated ^33P was measured using the Wallac Microbeta scintillation counter (Perkin Elmer).
Example C-2: Human MER (residues 528-999; CarnaBio, 1 ng/well) was also incubated with enzymatic buffer (Cisbio) supplemented with 5 mM MgCl2 and 1 mM DTT. The mixture was added to the pre-plated compounds. The reaction was initiated upon addition of ATP at Km (40 μM). The reaction was incubated at room temperature for 60 min and stopped upon the addition of SA-XL665 and TK-antibody both diluted in EDTA-containing kinase detection buffer (Cisbio). The kinase activity was calculated as stated above and the IC50 values were reported.

Human Met = biological target: T2, Human Met (Homo sapiens, UniProt P08581); assay: Human Met kinase assay (33P radiometric / HTRF KinEase); conditions: protocols of Examples D-1 and/or D-2; read-out: c-Met IC50
T2 construct: Human MET (residues 956-1390)
Procedure: as §1, §2, §3
Example D-1: Human Met (residues R974-S1390 with A1209G and V1290L, 3.4 nM) was incubated with 8 mM MOPS pH 7.0, 0.2 mM EDTA, 250 μM KKKGQEEEYVFIE (SEQ ID NO:3), 1 mM sodium orthovanadate, 5 mM […], 10 mM magnesium acetate, and 10 μM [γ-^33P-ATP]. The reaction was initiated by the addition of the Mg/ATP mix. After incubation for 40 minutes at room temperature, the reaction was stopped by the addition of phosphoric acid to a concentration of 0.5%. A reaction aliquot of 10 μL was then spotted onto a P30 filtermat and washed four times for 4 minutes in 0.425% phosphoric acid and once in methanol prior to drying and scintillation counting. Incorporated ^33P was measured using the Wallac Microbeta scintillation counter (Perkin Elmer).
(§5) Example D-2: Human MET (residues 956-1390; CarnaBio, 0.1 ng/well) was also incubated with enzymatic buffer (Cisbio) supplemented with 5 mM MgCl2, 1 mM DTT and 1 mM MnCl2. The mixture was added to the pre-plated compounds. The reaction was initiated upon addition of ATP at Km (3.0 μM). The reaction was incubated at room temperature for 40 min and stopped upon the addition of SA-XL665 and TK-antibody both diluted in EDTA-containing kinase detection buffer (Cisbio). The kinase activity was calculated as stated above and the IC50 values were reported.

Human KDR = biological target: T3, Human KDR (Homo sapiens, UniProt P35968); assay: Human KDR kinase assay (33P radiometric / HTRF KinEase); conditions: protocols of Examples B-1 and/or B-2
T3 construct: Human KDR (residues K790-V1356, 55 nM); purchased Eurofins Pharma Discovery Services UK Limited (KinaseProfiler, B-1) and/or CarnaBio (B-2)
Procedure: as §1, §2, §3
as §4, with “B-1:” for “C-1:”, “KDR” for “Mer”, “K790-V1356, 55” for “R557-E882 with H628Q and R794A, 0.7”, “0.33 mg/mL myelin basic protein,” for “30 mM NaCl, 250 μM GGMEDIYFEFMGGKKK (SEQ ID NO: 2),”
as §5, with “B-2:” for “D-2:”, “KDR” for “MET”, “790-1356;” for “956-1390;”, “MnCl2,” for “DTT”, “DTT.” for “MnCl2.”, “(4.0” for “(3.0”

T2 sequence (P08581 974-1390 limits assumed): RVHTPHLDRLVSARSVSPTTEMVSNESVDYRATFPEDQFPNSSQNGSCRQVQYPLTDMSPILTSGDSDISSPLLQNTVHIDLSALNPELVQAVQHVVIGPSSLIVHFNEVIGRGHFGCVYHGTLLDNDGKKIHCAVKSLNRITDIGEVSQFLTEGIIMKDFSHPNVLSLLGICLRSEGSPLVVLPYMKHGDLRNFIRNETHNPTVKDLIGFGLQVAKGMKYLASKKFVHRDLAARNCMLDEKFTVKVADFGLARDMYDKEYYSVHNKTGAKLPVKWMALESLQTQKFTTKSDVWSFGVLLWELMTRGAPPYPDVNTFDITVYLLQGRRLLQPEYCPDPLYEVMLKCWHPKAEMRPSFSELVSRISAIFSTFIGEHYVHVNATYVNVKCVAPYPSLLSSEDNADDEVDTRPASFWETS
T3 sequence (P35968 790-1356): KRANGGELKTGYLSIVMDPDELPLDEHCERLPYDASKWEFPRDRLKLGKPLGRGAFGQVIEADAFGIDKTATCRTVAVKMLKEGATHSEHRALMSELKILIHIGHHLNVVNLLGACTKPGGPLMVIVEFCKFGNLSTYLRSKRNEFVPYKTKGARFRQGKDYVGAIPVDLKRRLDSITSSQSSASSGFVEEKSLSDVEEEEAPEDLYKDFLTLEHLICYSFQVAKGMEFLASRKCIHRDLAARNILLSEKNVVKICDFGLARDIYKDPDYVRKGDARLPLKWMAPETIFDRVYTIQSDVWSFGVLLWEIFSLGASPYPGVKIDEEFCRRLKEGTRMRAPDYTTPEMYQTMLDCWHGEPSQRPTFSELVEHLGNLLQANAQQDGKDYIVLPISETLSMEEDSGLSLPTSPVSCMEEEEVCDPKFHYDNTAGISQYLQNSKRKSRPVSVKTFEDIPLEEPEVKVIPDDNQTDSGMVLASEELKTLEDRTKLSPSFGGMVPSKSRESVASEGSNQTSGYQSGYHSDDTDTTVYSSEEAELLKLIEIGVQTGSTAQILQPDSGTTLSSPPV

| SMILES | IC50 (Human Mer) | IC50 (Human Met) | IC50 (Human KDR) |
| --- | --- | --- | --- |
| C=C(C)c1c(C)nc(C)c(C(=O)Nc2ccc(Oc3ccnc4cc(OC)cnc34)c(F)c2)c1O [Compound 3, N-[3-Fluoro-4-[(7-methoxy-1,5-naphthyridin-4-yl)oxy]phenyl]-4-hydroxy-2,6-dimethyl-5-prop-1-en-2-ylpyridine-3-carboxamide] | ≤ 100 nM | ≤ 100 nM | ≤ 100 nM |
| C=C(C)c1c(C)nc(C)c(C(=O)Nc2ccc(Oc3ccnc4cc(OC)c(OC)nc34)cc2)c1O [Compound 4, N-[4-[(6,7-Dimethoxy-1,5-naphthyridin-4-yl)oxy]phenyl]-4-hydroxy-2,6-dimethyl-5-prop-1-en-2-ylpyridine-3-carboxamide] | ≤ 100 nM | ≤ 100 nM | ≤ 100 nM |
| COc1cc2nccc(Oc3ccc(NC(=O)c4c(C)n(C)c(C)c(C(C)C)c4=O)cc3F)c2nc1OC [Compound 56, N-[4-[(6,7-Dimethoxy-1,5-naphthyridin-4-yl)oxy]-3-fluorophenyl]-1,2,6-trimethyl-4-oxo-5-propan-2-ylpyridine-3-carboxamide] | ≤ 100 nM | > 300 nM | > 300 nM |
| COc1cc2nccc(Oc3ccc(NC(=O)c4c(C)n(C)c(C)c(C(C)C)c4=O)cc3)c2nc1OC [Compound 57, N-[4-[(6,7-Dimethoxy-1,5-naphthyridin-4-yl)oxy]phenyl]-1,2,6-trimethyl-4-oxo-5-propan-2-ylpyridine-3-carboxamide] | ≤ 100 nM | > 300 nM | ≤ 100 nM |
| COc1cnc2c(Oc3ccc(NC(=O)c4c(C)nc(C)c(OC)c4O)cc3)ccnc2c1 [Compound 59, 4-Hydroxy-5-methoxy-N-[4-[(7-methoxy-1,5-naphthyridin-4-yl)oxy]phenyl]-2,6-dimethylpyridine-3-carboxamide] | ≤ 100 nM | > 300 nM | 100 to 300 nM |
| CCc1c(Br)c(=O)c(C(=O)Nc2cc(F)c(Oc3ccnc4cc(OC)c(OC)nc34)cc2F)cn1C [Compound 63, 5-Bromo-N-[4-[(6,7-dimethoxy-1,5-naphthyridin-4-yl)oxy]-2,5-difluorophenyl]-6-ethyl-1-methyl-4-oxopyridine-3-carboxamide] | ≤ 100 nM | > 300 nM | > 300 nM |
| CCc1c(Br)c(=O)c(C(=O)Nc2ccc(Oc3ccnc4cc(OCCOC)c(OC)nc34)cc2)cn1C [Compound 64, 5-Bromo-6-ethyl-N-[4-[[6-methoxy-7-(2-methoxyethoxy)-1,5-naphthyridin-4-yl]oxy]phenyl]-1-methyl-4-oxopyridine-3-carboxamide] | ≤ 100 nM | > 300 nM | > 300 nM |
| COc1cc2nccc(Oc3cc(F)c(NC(=O)c4c(C)nc(C)c(OC)c4O)cc3F)c2nc1OC [Compound 68, N-[4-[(6,7-dimethoxy-1,5-naphthyridin-4-yl)oxy]-2,5-difluorophenyl]-4-hydroxy-5-methoxy-2,6-dimethylpyridine-3-carboxamide] | > 300 nM | > 300 nM | ≤ 100 nM |

Results, then the molecule that gave them:

| IC50 (Human Mer) | IC50 (Human Met) | IC50 (Human KDR) | SMILES |
| --- | --- | --- | --- |
| ≤ 100 nM | ≤ 100 nM | ≤ 100 nM | COc1cnc2c(Oc3ccc(NC(=O)c4cnc(C)c(C5=CCCCC5)c4O)cc3F)ccnc2c1 [Compound 1-8, 5-(Cyclohexen-1-yl)-N-[3-fluoro-4-[(7-methoxy-1,5-naphthyridin-4-yl)oxy]phenyl]-4-hydroxy-6-methylpyridine-3-carboxamide] |
| ≤ 100 nM | ≤ 100 nM | ≤ 100 nM | C=C(C)c1c(C)nc(C)c(C(=O)Nc2ccc(Oc3ccnc4cc(OC)c(OC)nc34)c(F)c2)c1O [Compound 5, N-[4-[(6,7-Dimethoxy-1,5-naphthyridin-4-yl)oxy]-3-fluorophenyl]-4-hydroxy-2,6-dimethyl-5-prop-1-en-2-ylpyridine-3-carboxamide] |
| > 300 nM | > 300 nM | ≤ 100 nM | COc1cnc2c(Oc3ccc(NC(=O)c4c(C)nc(C)c(OC)c4O)cc3F)ccnc2c1 [Compound 60, N-[3-Fluoro-4-[(7-methoxy-1,5-naphthyridin-4-yl)oxy]phenyl]-4-hydroxy-5-methoxy-2,6-dimethylpyridine-3-carboxamide] |
| > 300 nM | > 300 nM | ≤ 100 nM | COc1cc2nccc(Oc3ccc(NC(=O)c4c(C)nc(C)c(OC)c4O)cc3)c2nc1OC [Compound 61, N-[4-[(6,7-Dimethoxy-1,5-naphthyridin-4-yl)oxy]phenyl]-4-hydroxy-5-methoxy-2,6-dimethylpyridine-3-carboxamide] |
| ≤ 100 nM | > 300 nM | ≤ 100 nM | COc1cc2nccc(Oc3ccc(NC(=O)c4c(C)nc(C)c(OC)c4O)cc3F)c2nc1OC [Compound 62, N-[4-[(6,7-Dimethoxy-1,5-naphthyridin-4-yl)oxy]-3-fluorophenyl]-4-hydroxy-5-methoxy-2,6-dimethylpyridine-3-carboxamide] |
| > 300 nM | > 300 nM | > 300 nM | COCCOc1cnc2c(Oc3ccc(NC(=O)c4c(C)n(C)c(C)c(C5=CCOCC5)c4=O)cc3F)ccnc2c1 [Compound 67, 5-(3,6-Dihydro-2H-pyran-4-yl)-N-[3-fluoro-4-[[7-(2-methoxyethoxy)-1,5-naphthyridin-4-yl]oxy]phenyl]-1,2,6-trimethyl-4-oxopyridine-3-carboxamide] |
